Measured values from ChEMBL document CHEMBL1201862, “PubChem BioAssay data set” (2004).
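Step 1: Grow cells in 96-well plates. Step 2: Expose to compound for 48 hours at 5 concentrations. Step 3: Interpolate endpoints linearly; if unreached, use highest concentration. GI50 = concentration required for 50% inhibition of growth.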 Activity calls are given as the source filed them. Cut-off read from the data, not from the text of the source: active = GI50 up to about 1.1 µM and inactive = higher.

Columns and labels:
Experiment in all cases: NCI-60 cell line screen, 48 h
786-0 = test system: 786-0
A498 = test system: A498
A549 = test system: A549
ACHN = test system: ACHN
BT-549 = test system: BT-549
CAKI-1 = test system: CAKI-1
CCRF-CEM = test system: CCRF-CEM
COLO 205 = test system: COLO 205
DU-145 = test system: DU-145
HCC 2998 = test system: HCC 2998
HCT-116 = test system: HCT-116
HCT-15 = test system: HCT-15
HL-60 = test system: HL-60
HOP-92 = test system: HOP-92
K562 = test system: K562
LOX IMVI = test system: LOX IMVI
MDA-MB-231 = test system: MDA-MB-231
MDA-MB-435 = test system: MDA-MB-435
MDA-N = test system: MDA-N
NCI-H23 = test system: NCI-H23
NCI-H460 = test system: NCI-H460
OVCAR-4 = test system: OVCAR-4
RPMI-8226 = test system: RPMI-8226
RXF 393 = test system: RXF 393
SF-295 = test system: SF-295
SK-MEL-28 = test system: SK-MEL-28
SK-MEL-5 = test system: SK-MEL-5
SK-OV-3 = test system: SK-OV-3
SN12C = test system: SN12C
SNB-19 = test system: SNB-19
SR = test system: SR
SW-620 = test system: SW-620
T47D = test system: T47D
TK-10 = test system: TK-10
U-251 = test system: U-251
UACC-257 = test system: UACC-257
UACC-62 = test system: UACC-62
UO-31 = test system: UO-31
EKVX = test system: EKVX
HOP-62 = test system: HOP-62
HT-29 = test system: HT-29
IGROV-1 = test system: IGROV-1
KM12 = test system: KM12
M14 = test system: M14
MCF7 = test system: MCF7
MOLT-4 = test system: MOLT-4
NCI-H226 = test system: NCI-H226
NCI-H522 = test system: NCI-H522
OVCAR-3 = test system: OVCAR-3
OVCAR-5 = test system: OVCAR-5
OVCAR-8 = test system: OVCAR-8
PC-3 = test system: PC-3
SF-268 = test system: SF-268
SF-539 = test system: SF-539
SK-MEL-2 = test system: SK-MEL-2
SNB-75 = test system: SNB-75

For `Nc1nc2c(c(=O)[nH]1)C(c1ccc(Cl)cc1)C=C(c1ccccc1)N2` (stereo unspecified), the GI50 (786-0) was 25.4 µM (inactive), the GI50 (A498) was 54.5 µM (inactive) and the GI50 (A549) was 25.9 µM (inactive). The GI50 (ACHN) was 75.3 µM (inactive), the GI50 (BT-549) was 35.1 µM (inactive) and the GI50 (CAKI-1) was 91.4 µM (inactive). For the same compound, the GI50 (CCRF-CEM) was 24.8 µM (inactive), the GI50 (COLO 205) was 19.1 µM (inactive) and the GI50 (DU-145) was 29.4 µM (inactive). For the same compound, the GI50 (HCC 2998) was 15.3 µM (inactive), the GI50 (HCT-116) was 16.3 µM (inactive) and the GI50 (HCT-15) was 34.7 µM. For the same compound, the GI50 (HL-60) was 30.8 µM (inactive), the GI50 (HOP-92) was 20.4 µM (inactive) and the GI50 (K562) was 20.6 µM (inactive). The GI50 (LOX IMVI) was 45.3 µM (inactive), the GI50 (MDA-MB-231) was 20.9 µM (inactive) and the GI50 (MDA-MB-435) was 15 µM (inactive). The GI50 (MDA-N) was 18.6 µM (inactive), the GI50 (NCI-H23) was 24.4 µM (inactive) and the GI50 (NCI-H460) was 20.4 µM (inactive). The GI50 (OVCAR-4) was 21.6 µM (inactive), the GI50 (RPMI-8226) was 18.4 µM (inactive) and the GI50 (RXF 393) was 43.6 µM (inactive). For the same compound, the GI50 (SF-295) was 26.7 µM (inactive), the GI50 (SK-MEL-28) was 22.6 µM (inactive) and the GI50 (SK-MEL-5) was 19.9 µM (inactive). The GI50 (SK-OV-3) was 23.8 µM (inactive), the GI50 (SN12C) was 19.9 µM (inactive) and the GI50 (SNB-19) was 37.9 µM (inactive). For the same compound, the GI50 (SR) was 19.4 µM (inactive), the GI50 (SW-620) was 18.1 µM (inactive) and the GI50 (T47D) was 21.8 µM (inactive). For the same compound, the GI50 (TK-10) was 51.6 µM (inactive), the GI50 (U-251) was 17.8 µM (inactive) and the GI50 (UACC-257) was 54.8 µM (inactive). For the same compound, the GI50 (UACC-62) was 27.4 µM (inactive) and the GI50 (UO-31) was 92.7 µM (inactive).
For `C=C(Cl)C(Cl)(CCl)CCC(Br)C(C)(C)Br` (stereo unspecified), the GI50 (786-0) was > 10 µM (inactive), the GI50 (A498) was > 10 µM (inactive) and the GI50 (A549) was > 10 µM (inactive). For the same compound, the GI50 (ACHN) was > 10 µM (inactive), the GI50 (BT-549) was > 10 µM (inactive) and the GI50 (CAKI-1) was > 10 µM (inactive). For the same compound, the GI50 (CCRF-CEM) was > 10 µM (inactive), the GI50 (COLO 205) was > 10 µM (inactive) and the GI50 (DU-145) was > 10 µM (inactive). For the same compound, the GI50 (EKVX) was > 10 µM (inactive), the GI50 (HCC 2998) was > 10 µM (inactive) and the GI50 (HCT-116) was > 10 µM (inactive). The GI50 (HCT-15) was > 10 µM, the GI50 (HL-60) was > 10 µM (inactive) and the GI50 (HOP-62) was > 10 µM (inactive). For the same compound, the GI50 (HOP-92) was > 10 µM (inactive), the GI50 (HT-29) was > 10 µM (inactive) and the GI50 (IGROV-1) was > 10 µM (inactive). The GI50 (K562) was > 10 µM (inactive), the GI50 (KM12) was > 10 µM (inactive) and the GI50 (M14) was > 10 µM (inactive). For the same compound, the GI50 (MCF7) was > 10 µM (inactive), the GI50 (MDA-MB-231) was > 10 µM (inactive) and the GI50 (MDA-MB-435) was > 10 µM (inactive). For the same compound, the GI50 (MDA-N) was > 10 µM (inactive), the GI50 (MOLT-4) was > 10 µM (inactive) and the GI50 (NCI-H226) was > 10 µM (inactive). The GI50 (NCI-H23) was > 10 µM (inactive), the GI50 (NCI-H522) was > 10 µM (inactive) and the GI50 (OVCAR-3) was > 10 µM (inactive). For the same compound, the GI50 (OVCAR-4) was > 10 µM (inactive), the GI50 (OVCAR-5) was > 10 µM (inactive) and the GI50 (OVCAR-8) was > 10 µM (inactive). For the same compound, the GI50 (PC-3) was > 10 µM (inactive), the GI50 (RPMI-8226) was > 10 µM (inactive) and the GI50 (RXF 393) was > 10 µM (inactive). The GI50 (SF-268) was > 10 µM (inactive), the GI50 (SF-295) was > 10 µM (inactive) and the GI50 (SF-539) was > 10 µM (inactive). For the same compound, the GI50 (SK-MEL-28) was > 10 µM (inactive), the GI50 (SK-MEL-2) was > 10 µM (inactive) and the GI50 (SK-MEL-5) was > 10 µM (inactive). The GI50 (SK-OV-3) was > 10 µM (inactive), the GI50 (SN12C) was > 10 µM (inactive) and the GI50 (SNB-19) was > 10 µM (inactive). The GI50 (SNB-75) was > 10 µM (inactive), the GI50 (SR) was > 10 µM (inactive) and the GI50 (SW-620) was > 10 µM (inactive). For the same compound, the GI50 (T47D) was > 10 µM (inactive), the GI50 (TK-10) was > 10 µM (inactive) and the GI50 (U-251) was > 10 µM (inactive). For the same compound, the GI50 (UACC-62) was > 10 µM (inactive) and the GI50 (UO-31) was > 10 µM (inactive).
